Where a name gives a salt, the structure may show the parent alone.
system: not given; assay: not given; conditions: not given

First: CC(CNC(=O)N(CCN(C)C(=O)OC(C)(C)C)CCC12CC3CC(CC(C3)C1)C2)Cc1ccncc1 (single isomer, unassigned; (+)) [Compound No. 1-139, (+)-1-[2-(1-Adamantyl)ethyl]-1-[2-[N-(t-butoxycarbonyl)-N-methylamino]ethyl]-3-[2-methyl-3-(4-pyridyl)propyl]urea]
Second: COCCN(CCC12CC3CC(CC(C3)C1)C2)C(=O)NCCCc1ccncc1 [Compound No. 1-18, 1-[2-(1-Adamantyl)ethyl]-1-(2-methoxyethyl)-3-[3-(4-pyridyl)propyl]urea]
The melting point of the first is higher: 122.7 to 123.7 °C for the first, 101.5 to 104.5 °C for the second.

system: TNF-α production; assay: Inhibitory effects on TNF-α production induced by lipopolysaccharide (LPS) stimulation, in vivo test; parameters: species or system rat; conditions: Rattus norvegicus, 2 h; female rats, oral administration of 3 mg/kg immediately after LPS to footpad; plasma TNF-α (ELISA) two hours after LPS; read-out: Inhibition rate (%) of TNF-α production
Procedure: Inhibitory effects on TNF-α production induced by lipopolysaccharide (LPS) stimulation were studied by in vivo tests according to the method of Tsuji et al. (Inflamm res. 46 (1997) 193-198).
Female rats (five per group), body weight of about 200 g, about eight weeks old, were used as test animals. LPS from Salmonella was dissolved in physiological saline to prepare an LPS solution (1 mg/ml). Each test substance was dissolved or uniformly suspended in a 1% methylcellulose solution to give test substance-preparation liquids.
The above-mentioned LPS solution (0.5 ml/kg) was administered to a footpad of the rat. Immediately after the LPS administration, the test substance-preparation liquid (containing 10 mg/kg or 3 mg/kg test substance) was orally administered. Two hours after the LPS administration, blood was collected from abdominal aorta and was centrifuged at 4° C. and 3000 rpm for ten minutes. TNF-α levels in the obtained plasma were measured with a rat TNF-α-specific ELISA kit. TNF-α was not observed in the plasma with respect to an LPS-non-administered group (control).
Inhibition rates of TNF-α production of the test substances were determined by the following equation. Inhibition rate (%)=[(A−B)/A]×100 A: TNF-α level in plasma of test substance-nonadministered group B: TNF-α level in plasma of test substance-administered group (Results)

Going from `C=CCCCCCCN(CCCCCCC=C)C(=O)NCCCc1ccncc1` [Compound No. 1-95, 1,1-Di(7-octenyl)-3-[3-(4-pyridyl)propyl]urea] to `CCCCCN(CCc1ccccc1)C(=O)CCCCc1ccncc1` [Compound No. 2-9, 5-(4-Pyridyl)valeric acid N-pentyl-N-phenethylamide], the inhibition in vivo at 3 mg/kg rises from 70.8% to 84.5%.

First: CCCCCN(CCC12CC3CC(CC(C3)C1)C2)C(=O)NC/C=C\c1ccncc1 [Compound No. 1-111, (Z)-1-[2-(1-Adamantyl)ethyl]-1-pentyl-3-[3-(4-pyridyl)-2-propenyl]urea]
Second: CCCCCN(CCC12CC3CC(CC(C3)C1)C2)C(=O)NCCC(O)c1ccncc1 (stereo not drawn) [Compound No. 14-1, 1-[2-(1-Adamantyl)ethyl]-3-[3-hydroxy-3-(4-pyridyl)propyl]-1-pentylurea]
The inhibition in vivo at 3 mg/kg of the first is higher: 85.1% for the first, 36.3% for the second.

First: CCCCCN(CCC12CC3CC(CC(C3)C1)C2)C(=O)CCCCc1ccncc1 [Compound No. 2-14, 5-(4-Pyridyl)valeric acid N-[2-(1-adamantyl)ethyl]-N-pentylamide]
Second: CCCCCN(CCC12CC3CC(CC(C3)C1)C2)C(=O)CCCCCc1ccncc1 [Compound No. 2-20, 6-(4-Pyridyl)caproic acid N-[2-(1-adamantyl)ethyl]-N-pentylamide]
The inhibition in vivo at 3 mg/kg of the first is higher: 87.3% for the first, 82.1% for the second.

Compared with `CCCCCN(CCC12CC3CC(CC(C3)C1)C2)C(=O)CCSCc1ccncc1` [Compound No. 2-15, 3-(4-Pyridylmethylthio)propionic acid N-[2-(1-adamantyl)ethyl]-N-pentylamide], `CCCCCN(CCC12CC3CC(CC(C3)C1)C2)C(=O)CSCCc1ccncc1` [Compound No. 2-18, 2-[2-(4-Pyridyl)ethylthio]acetic acid N-[2-(1-adamantyl)ethyl]-N-pentylamide] is higher in inhibition in vivo at 3 mg/kg: 68.1% for the first, 87.3% for the second.

Compared with `CCCCCN(CCC12CC3CC(CC(C3)C1)C2)C(=O)C(N)CSCc1ccncc1` (stereo not drawn) [Compound No. 3-4, 2-Amino-3-(4-pyridylmethylthio)propionic acid N-[2-(1-adamantyl)ethyl]-N-pentylamide dihydrochloride], `CCCCCN(CCC12CC3CC(CC(C3)C1)C2)C(=O)OCC(C)Cc1ccncc1` (stereo not drawn) [Compound No. 5-6, 2-Methyl-3-(4-pyridyl)propyl N-[2-(1-adamantyl)ethyl]-N-pentylcarbamate] is lower in inhibition in vivo at 3 mg/kg: 76.1% for the first, 41.7% for the second.

Compared with `CCCCCN(CCC12CC3CC(CC(C3)C1)C2)C(=O)NCCCc1cc[n+](C)cc1` [Compound No. 4-1, 4-[3-[3-[2-(1-Adamantyl)ethyl]-3-pentylureido]propyl]-1-methylpyridinium iodide], `CCCCCN(CCC12CC3CC(CC(C3)C1)C2)C(=O)NCCCc1cc[n+]([O-])cc1` [Compound No. 16-1, 4-[3-[3-[2-(1-Adamantyl)ethyl]-3-pentylureido]propyl]pyridine N-oxide] is higher in inhibition in vivo at 3 mg/kg: 42.8% for the first, 74.3% for the second.

Compared with `O=C(OCCCc1ccncc1)N(CCC(F)(F)F)CCC12CC3CC(CC(C3)C1)C2` [Compound No. 5-4, 3-(4-Pyridyl)propyl N-[2-(1-adamantyl)ethyl]-N-(3,3,3-trifluoropropyl)carbamate], `CCCCCN(CCC12CC3CC(CC(C3)C1)C2)C(=O)COCCc1ccncc1` [Compound No. 18-3, 2-[2-(4-Pyridyl)ethoxy]acetic acid N-[2-(1-adamantyl)ethyl]-N-pentylamide] is lower in inhibition in vivo at 3 mg/kg: 62.6% for the first, 56.6% for the second.

With `CCCCCN(CCC12CC3CC(CC(C3)C1)C2)C(=O)NCCC(=O)c1ccncc1` [Compound No. 31-1, 1-[2-(1-Adamantyl)ethyl]-3-[3-oxo-3-(4-pyridyl)propyl]-1-pentylurea] the inhibition in vivo at 3 mg/kg was 46.8%.

same assay, conditions: Rattus norvegicus, 2 h; female rats, oral administration of 10 mg/kg immediately after LPS to footpad; plasma TNF-α (ELISA) two hours after LPS; read-out: Inhibition rate (%) of TNF-α production

Going from `CC(CNC(=O)N(CCN(C)C(=O)OC(C)(C)C)CCC12CC3CC(CC(C3)C1)C2)Cc1ccncc1` (single isomer, unassigned; (+)) [Compound No. 1-139, (+)-1-[2-(1-Adamantyl)ethyl]-1-[2-[N-(t-butoxycarbonyl)-N-methylamino]ethyl]-3-[2-methyl-3-(4-pyridyl)propyl]urea] to `COCCN(CCC12CC3CC(CC(C3)C1)C2)C(=O)NCCCc1ccncc1` [Compound No. 1-18, 1-[2-(1-Adamantyl)ethyl]-1-(2-methoxyethyl)-3-[3-(4-pyridyl)propyl]urea], the inhibition in vivo at 10 mg/kg falls from 94.1% to 78.9%.

First: CCCCCN(CCC1CCCCC1)C(=O)NCCCc1ccncc1 [Compound No. 1-44, 1-(2-Cyclohexylethyl)-1-pentyl-3-[3-(4-pyridyl)propyl]urea]
Second: CCCCCN(CCc1ccccc1)C(=O)NCCCc1ccncc1 [Compound No. 1-45, 1-Pentyl-1-phenethyl-3-[3-(4-pyridyl)propyl]urea]
The inhibition in vivo at 10 mg/kg of the first is higher: 93.7% for the first, 91.1% for the second.

First: CCCCCN(CCc1ccccn1)C(=O)NCCCc1ccncc1 [Compound No. 1-55, 1-Pentyl-1-[2-(2-pyridyl)ethyl]-3-[3-(4-pyridyl)propyl]urea]
Second: CCCCCN(CCC12CC3CC(CC(C3)C1)C2)C(=S)NCCCc1ccncc1 [Compound No. 7-1, 1-[2-(1-Adamantyl)ethyl]-1-pentyl-3-[3-(4-pyridyl)propyl]thiourea]
The inhibition in vivo at 10 mg/kg of the first is higher: 78.1% for the first, 71.5% for the second.

Compared with `CCCN(CCC12CC3CC(CC(C3)C1)C2)C(=O)CCCCc1ccncc1` [Compound No. 2-1, 5-(4-Pyridyl)valeric acid N-[2-(1-adamantyl)ethyl]-N-propylamide], `CCCCCN(CC12CC3CC(CC(C3)C1)C2)C(=O)CCCCc1ccncc1` [Compound No. 2-3, 5-(4-Pyridyl)valeric acid N-(1-adamantyl)methyl-N-pentylamide] is lower in inhibition in vivo at 10 mg/kg: 91.5% for the first, 51.8% for the second.

First: O=C1CCN(CCC23CC4CC(CC(C4)C2)C3)C(=O)N1CCCc1ccncc1 [Compound No. 6-1, 1-[2-(1-Adamantyl)ethyl]-3-[3-(4-pyridyl)propyl]hexahydro-2,4-pyrimidinedione hydrochloride]
Second: CN(CCCc1ccncc1)C(=O)N(C)CCC12CC3CC(CC(C3)C1)C2 [Compound No. 11-1, [2-(1-Adamantyl)ethyl]-1,3-dimethyl-3-[3-(4-pyridyl)propyl]urea]
The inhibition in vivo at 10 mg/kg of the first is lower: 50.5% for the first, 50.8% for the second.

same assay, conditions: female rats, oral administration of 3 mg/kg immediately after LPS to footpad; plasma TNF-α (ELISA) two hours after LPS

Compared with `CCCCCN(CCN(C)C(=O)OCc1ccccc1)C(=O)NCCCc1ccncc1` [Compound No. 1-78, [2-(N-Benzyloxycarbonyl-N-methylamino)ethyl]-1-pentyl-3-[3-(4-pyridyl)propyl]urea], `CN(CCN(CCC12CC3CC(CC(C3)C1)C2)C(=O)CCCCc1ccncc1)C(=O)OCc1ccccc1` [Compound No. 10-16, 5-(4-Pyridyl)valeric acid N-[2-(1-adamantyl)ethyl]-N-[2-(N′-benzyloxycarbonyl-N′-methylamino)ethyl]amide] is higher in “Inhibition rate (%) of TNF-α production” value: 61.5% for the first, 62.8% for the second.

Compared with `CN(CCN(CCC12CC3CC(CC(C3)C1)C2)C(=O)CCCCc1ccncc1)C(=O)OC(C)(C)C` [Compound No. 2-7, 5-(4-Pyridyl)valeric acid N-[2-(1-adamantyl)ethyl]-N-[2-[N-(tbutoxycarbonyl)-N′-methylamino]ethyl]amide], `CN(CCN(CCC12CC3CC(CC(C3)C1)C2)C(=O)CCCCc1ccncc1)C(=O)CC(C)(C)C` [Compound No. 10-17, 5-(4-Pyridyl)valeric acid N-[2-(1-adamantyl)ethyl]-N-[2-[N′-(3,3-dimethylbutyryl)-N′-methylamino]ethyl]amide] is lower in “Inhibition rate (%) of TNF-α production” value: 78.7% for the first, 53.8% for the second.

Compared with `CCCCCN(CCC1CCCCC1)C(=O)CCCCc1ccncc1` [Compound No. 2-11, 5-(4-Pyridyl)valeric acid N-(2-cyclohexylethyl)-NY-pentylamide], `CCCCCN(CCC12CC3CC(CC(C3)C1)C2)C(=O)CNCCc1ccncc1` [Compound No. 18-1, 2-[2-(4-Pyridyl)ethylamino]acetic acid N-[2-(1-adamantyl)ethyl]1-N-pentylamide] is higher in “Inhibition rate (%) of TNF-α production” value: 53.5% for the first, 55.7% for the second.

First: CCCN(CCCC12CC3CC(CC(C3)C1)C2)C(=O)OCCCc1ccncc1 [Compound No. 5-3, 3-(4-Pyridyl)propyl N [3-(1-adamantyl)propyl]-N-propylcarbamate]
Second: CN(CCN(CCC12CC3CC(CC(C3)C1)C2)C(=O)OCCCc1ccncc1)C(=O)OC(C)(C)C [Compound No. 5-5, 3-(4-Pyridyl)propyl N-[2-(1-adamantyl)ethyl]-N-[2-[N′-(tbutoxycarbonyl)-N′-methylamino]ethyl]carbamate]
The “Inhibition rate (%) of TNF-α production” value of the first is higher: 49.4% for the first, 42.8% for the second.

With `CCCCCN(CCC12CC3CC(CC(C3)C1)C2)C(=O)NCCCc1ccnc(C)c1` [Compound No. 27-1, 1-[2-(1-Adamantyl)ethyl]-3-[3-[4-(2-methyl)pyridyl]propyl]-1-pentylurea] the “Inhibition rate (%) of TNF-α production” value was 68.6%.
